Laboratory results: US20260083722A1, “BIFUNCTIONAL DEGRADERS COMPRISING ELECTROPHILIC PROTACS THAT ENGAGE DCAF1 AND PHARMACEUTICAL COMPOSITIONS COMPRISING THE SAME” (THE SCRIPPS RESEARCH INSTITUTE, priority 2022, published 2026)

Molecular target: T1, HA-FKBP12 (Homo sapiens, UniProt P62942)
T1 construct: expressed in transfected cells; host or cells: HEK293T
Assay: HA-FKBP12 abundance by Western blotting in transfected HEK293T cells
Format: cell-based
Details: for time after treatment until evidence of HA-FKBP12 degradation: 2 μM each, FLAG-DCAF1-transfected cells; for lowest concentration with evidence of FKBP12 degradation: HEK293T co-expressing HA-FKBP12 and FLAG-DCAF1; for degradation of FKBP12: cells expressing DCAF1-C1113A mutant; for hook effect in HA-FKBP12 degradation: emerging at 5 μM
Text: (A) Left, western blots showing concentration-dependent effects of YT47R (upper) and YT41R (lower) on FKBP12 abundance in HEK293T cells expressing HA-FBKP12 with or without co-expression of FLAG-DCAF1. Right, quantification of HA-FKBP12 abundance in the indicated experimental groups. (B) Left, western blots showing effects of YT47R versus YT47S (upper) and YT41R versus YT41S (lower) on FKBP12 abundance in HEK293T cells co-expressing HA-FBKP12 and FLAG-DCAF1. Right, quantification of HA-FKBP12 abundance in the indicated experimental groups. (C) Western blots showing effects of YT47R (left blots) and YT41R (right blots) on FKBP12 abundance in HEK293T cells co-expressing HA-FBKP12 and either FLAG-DCAF1-WT or FLAG-DCAF1-C1113A mutant. Quantification of HA-FKBP12 abundance in the indicated experimental groups is shown in the adjacent bar graphs. For (A-C), FKBP12 abundance was determined at 24 h post-treatment with compounds, and data are mean values±SEM for three independent experiments. Statistical significance was calculated with unpaired two-tailed Student's t-tests comparing YT41R/YT47R- and DMSO-treated cells. ***P<0.001, ****P<0.0001.
(A) Left, western blots showing effects of proteasome (MG132) and Neddylation (MLN4924) inhibitors (1 h pre-treatment) on YT47R- and YT41R-dependent degradation of FKBP12 in HEK293T cells co-expressing HA-FBKP12 and FLAG-DCAF1. FKBP12 abundance was determined at 24 h post-treatment with YT47R or YT41R. Right, quantification of HA-FKBP12 abundance in the indicated experimental groups. (B) Left, western blots showing effects of the FKBP12 ligand SLF (20 μM) or DCAF1 ligand MY-11B (1 h pre-treatment with 20 μM SLF or 5 μM MY-11B) on YT47R- and YT41R-dependent degradation of FKBP12 in HEK293T cells co-expressing HA-FBKP12 and FLAG-DCAF1. FKBP12 abundance was determined at 24 h post-treatment with YT47R or YT41R. Right, quantification of HA-FKBP12 abundance in the indicated experimental groups. (C) Left, western blots showing effects of MY-11A or MY-11B (5 μM, 1 h pre-treatment) on YT47R- and YT41R-dependent degradation of FKBP12 in HEK293T cells co-expressing HA-FBKP12 and FLAG-DCAF1. FKBP12 abundance was determined at 24 h post-treatment with YT47R or YT41R. Right, quantification of HA-FKBP12 abundance in the indicated experimental groups. For (A-C), data are mean values±SEM for three-five independent experiments. Statistical significance was calculated with unpaired two-tailed Student's t-tests comparing YT41R/YT47R- and DMSO-treated cells. ****P<0.0001.
Figure S3. Concentration-dependent degradation of FKBP12 by DCAF1-directed electrophilic PROTACs. Top, western blots showing concentration-dependent effects of YT47R and YT41R on FKBP12 abundance in HEK293T cells co-expressing HA-FBKP12 and FLAG-DCAF1. Data are mean values±SEM for four independent experiments. Statistical significance was calculated with unpaired two-tailed Student's t-tests comparing YT41R/YT47R- and DMSO-treated cells. *P<0.1, **P<0.01, ***P<0.001, ****P<0.0001.
Figure S4. Time-dependent degradation of FKBP12 by DCAF1-directed electrophilic PROTACs. Top, western blots showing time-dependent effects of YT47R and YT41R (2 μM each) on FKBP12 abundance in HEK293T cells co-expressing HA-FBKP12 and FLAG-DCAF1. Data are mean values±SEM for four independent experiments. Statistical significance was calculated with unpaired two-tailed Student's t-tests comparing YT41R/YT47R- and DMSO-treated cells. ****P<0.0001.
We next treated HEK293T cells co-transfected with FLAG epitope-tagged full length DCAF1 (a.a.'s 1-1507) and HA (hemagglutinin) epitope-tagged FKBP12 with a concentration range of YT41R or YT47R and, after 24 h, measured HA-FKBP12 abundance by Western blotting.

[1] = HEK293T cells transfected only with HA-FKBP12, 24 h
[2] = HEK293T co-transfected with FLAG-DCAF1 and HA-FKBP12, 24 h

T1 sequence (P62942 whole entry): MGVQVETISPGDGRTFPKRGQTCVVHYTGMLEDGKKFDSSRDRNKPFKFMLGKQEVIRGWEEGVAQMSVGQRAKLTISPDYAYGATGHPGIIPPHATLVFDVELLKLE

With `C=CC(=O)C1C[C@H](c2ccc(C(=O)NCCOCCOCCNC(=O)COc3cccc([C@@H](CCc4ccc(OC)c(OC)c4)OC(=O)[C@@H]4CCCCN4C(=O)C(=O)C(C)(C)CC)c3)cc2)[C@@H]1C(=O)Nc1cccc2cccnc12` (stereo partly drawn) [YT41R] the “time after treatment until evidence of HA-FKBP12 degradation” value was roughly 24 h, the “degradation of HA-FKBP12” value [1] was “not” and the “lowest concentration with evidence of FKBP12 degradation” value was 0.25 µM. The “degradation of HA-FKBP12” value [2] was “Robust concentration-dependent degradation”, the “degradation of FKBP12” value was “did not promote the degradation” and the “hook effect in HA-FKBP12 degradation” value was “possible modest hook effect”.
In the case of `C=CC(=O)N1C[C@H](c2ccc(C(=O)NCCOCCOCCOCCNC(=O)COc3cccc([C@@H](CCc4ccc(OC)c(OC)c4)OC(=O)[C@@H]4CCCCN4C(=O)C(=O)C(C)(C)CC)c3)cc2)[C@@H]1C(=O)Nc1cccc2cccnc12` [YT47R], the “time after treatment until evidence of HA-FKBP12 degradation” value is reported as roughly 24 h, the “degradation of HA-FKBP12” value [1] is reported as “not” and the “lowest concentration with evidence of FKBP12 degradation” value is reported as 0.25 µM. The “degradation of HA-FKBP12” value [2] was “Robust concentration-dependent degradation”, the “degradation of FKBP12” value was “did not promote the degradation” and the “hook effect in HA-FKBP12 degradation” value was “possible modest hook effect”.
